One data set concerns CA/07/2009. The data set can be described thus: microbe, parasite or virus in culture. The note with it: Table 7. It is filed as cell-based.
Another data set deals with Duck/MN/1525/81. In kind it is cell-based. Conditions: Table 7.
Another data set relates to Perth/16/2009. Kind of data set: microbe, parasite or virus in culture. In kind it is cell-based. The note with it: Table 7.
A further data set concerns Florida/4/2006. The data set can be described thus: microbe, parasite or virus in culture. It is filed as cell-based. The note with it: Table 7.
For data set [1], the system named is Influenza A virus H7N9, A/Anhui/1/2003. In kind it is cell-based.
Data set [2] has the same test system. It is filed as cell-based. This is another data set of the same source.
Data set [3] deals with Influenza A virus H5N1, Hong Kong/213/2003. Kind of data set: microbe, parasite or virus in culture. In kind it is cell-based.
For data set [4] the test system is unchanged. The data set can be described thus: microbe, parasite or virus in culture. It is filed as cell-based. The source holds these as a separate data set.
For data set [5] the following is noted: line Neutral Red (Cytopathic effect/Toxicity). (In general: Protection from cytopathic effect is a common read-out in antiviral testing.)
The next data set has as its system A/Mississippi/03/01H274Y. It is filed as cell-based, influenza virus.
Data set [6] relates to Influenza A virus H3N2, Perth/16/2009. The data set can be described thus: microbe, parasite or virus in culture. In kind it is cell-based.
Data set [7] has the same test system. The data set can be described thus: microbe, parasite or virus in culture. In kind it is cell-based. The note with it: Table 11, Neutral Red, read-out: EC50.
Data set [8] concerns Influenza A virus H1N1, California/07/2009. The data set can be described thus: microbe, parasite or virus in culture. In kind it is cell-based.
The test system is the same in data set [9]. The data set can be described thus: microbe, parasite or virus in culture. In kind it is cell-based. Conditions: Table 13, Neutral Red, read-out: EC50.
Data set [10] relates to Influenza A virus H5N1, Duck/MN/1525/81. The data set can be described thus: microbe, parasite or virus in culture. In kind it is cell-based.
Data set [11] has as its system Influenza B virus, B/Brisbane/60/2008. Kind of data set: microbe, parasite or virus in culture. In kind it is cell-based.
Data set [12] has the same test system. The data set can be described thus: microbe, parasite or virus in culture. The note with it: Table 18, Neutral Red. It is filed as cell-based.
For data set [13], the system named is Influenza B virus, B/Florida/4/2006. The data set can be described thus: microbe, parasite or virus in culture. It is filed as cell-based.
For data set [14] the test system is unchanged. The data set can be described thus: microbe, parasite or virus in culture. In kind it is cell-based. The note with it: Table 19, Neutral Red (Cytopathic effect/Toxicity), B/Florida/4/2006, read-out: EC50.
The test system of a further data set is CA/07/2009 virus H1N1. Kind of data set: Viral Plaque Reduction Assay (Table 22). In kind it is cell-based. Conditions: Influenza A virus. (Plaque reduction counts the foci of infection that form in a cell layer.)
A further data set has as its system A/PR/8 virus H1N1. The data set can be described thus: Viral Plaque Reduction Assay (Table 23). It is filed as cell-based, influenza virus. The note with it: Influenza A virus.
A further data set addresses hERG (Homo sapiens, UniProt Q12809).
For the next data set, the system named is kinases. Kind of data set: KINOME scan profiling (Table 41).

SMILES strings stand for the structures. ≈ marks a conversion by molar mass, not a printed value. Where “and” joins values, the source holds several entries; their conditions need not be identical. Equal entries are not always repeated. Where two headings read alike, the source gives them in different places. Bounds are passed on as bounds.

We go through two molecules from patent publication US11007274B2, “Compounds for medicinal applications” (Ausvir Therapeutics Pty LTD, priority 2015, dated 2021).

Chain of hERG (Q12809 whole entry): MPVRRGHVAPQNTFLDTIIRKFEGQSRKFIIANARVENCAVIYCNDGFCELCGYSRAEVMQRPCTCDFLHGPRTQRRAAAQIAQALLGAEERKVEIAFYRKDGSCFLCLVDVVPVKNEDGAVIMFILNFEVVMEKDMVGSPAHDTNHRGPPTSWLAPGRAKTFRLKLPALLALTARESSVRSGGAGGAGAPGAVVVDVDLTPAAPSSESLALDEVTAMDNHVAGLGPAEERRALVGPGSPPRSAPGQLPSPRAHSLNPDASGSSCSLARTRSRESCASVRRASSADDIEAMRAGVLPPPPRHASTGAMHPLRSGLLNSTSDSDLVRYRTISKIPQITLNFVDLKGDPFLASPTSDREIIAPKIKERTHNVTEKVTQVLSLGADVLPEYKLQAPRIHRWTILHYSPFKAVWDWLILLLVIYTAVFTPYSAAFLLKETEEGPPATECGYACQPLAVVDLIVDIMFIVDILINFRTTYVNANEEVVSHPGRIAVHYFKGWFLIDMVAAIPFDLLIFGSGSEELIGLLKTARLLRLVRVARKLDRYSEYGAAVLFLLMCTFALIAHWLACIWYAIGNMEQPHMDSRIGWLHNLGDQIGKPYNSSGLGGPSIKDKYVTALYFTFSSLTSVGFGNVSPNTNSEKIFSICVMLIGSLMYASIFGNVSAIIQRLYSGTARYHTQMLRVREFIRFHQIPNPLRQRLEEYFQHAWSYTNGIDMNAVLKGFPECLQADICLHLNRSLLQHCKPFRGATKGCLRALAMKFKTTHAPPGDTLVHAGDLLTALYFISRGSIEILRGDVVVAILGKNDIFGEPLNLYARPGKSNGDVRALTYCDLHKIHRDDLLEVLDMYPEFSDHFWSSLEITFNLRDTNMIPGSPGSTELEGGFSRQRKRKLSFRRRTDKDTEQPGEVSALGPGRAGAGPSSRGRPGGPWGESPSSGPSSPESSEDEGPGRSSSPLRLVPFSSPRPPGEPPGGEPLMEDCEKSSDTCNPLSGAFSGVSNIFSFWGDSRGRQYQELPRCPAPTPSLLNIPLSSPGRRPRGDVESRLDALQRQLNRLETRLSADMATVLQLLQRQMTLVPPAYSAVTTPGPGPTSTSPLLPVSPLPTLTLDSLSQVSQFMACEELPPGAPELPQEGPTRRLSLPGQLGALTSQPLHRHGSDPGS

What is called EC50 is the midpoint of the concentration-response curve. The EC90 is the point of the concentration-response curve where the effect stands at 90%. A higher EC90 goes with a need for much substance. Usually CC50 stands for the concentration giving 50% cytotoxicity. Read a low CC50 as greater toxicity to the cells. Consider `CC(=O)N[C@H]1[C@H]([C@H](OC(=O)NCCCCCCCCNC(=O)[C@@H]2C[C@H](C(=O)NCCCCCCCCNC(=O)O[C@@H]([C@@H]3OC(C(=O)O)=C[C@H](N=C(N)N)[C@H]3NC(C)=O)[C@H](O)CO)C[C@H](C(=O)N[C@@H](CC(=O)NCS(=O)(=O)O)C(=O)NCS(=O)(=O)O)C2)[C@H](O)CO)OC(C(=O)O)=C[C@@H]1N=C(N)N` [MD154, CHTCA(Z0)2-L-Asp(NHCH2SO3H)2], for which the EC50 is 6.06 nM in the data set on CA/07/2009; < 0.087 nM in the data set on Duck/MN/1525/81; < 0.087 nM with Perth/16/2009; < 0.087 nM in the data set on Florida/4/2006; <0.32 ng/mL in data set [2]; <0.32 ng/mL in data set [4]. Further, the “EC50 CA/07/2009” value in the data set with CA/07/2009 (MDCK cell line) was 9 ng/mL (≈ 6.05 nM). In addition, the “EC50 Perth/16/2009” value with Perth/16/2009 is <0.13 ng/mL. Besides, the “EC50 Florida/4/2006” value in the data set with Florida/4/2006 is <0.13 ng/mL. Also, the EC90 is 10 ng/mL (≈ 6.73 nM) in data set [1] and <0.32 ng/mL in data set [3]. In addition, the CC50 in [5] (Table 9) and in data set [5] (Table 10) was >1000 ng/mL throughout.
With `CC(=O)N[C@H]1[C@H]([C@H](OC(=O)NCCCCCCCCCNC(=O)c2cc(C(=O)NCCCCCCCCCNC(=O)O[C@@H]([C@@H]3OC(C(=O)O)=C[C@H](NC(=N)N)[C@H]3NC(C)=O)[C@H](O)CO)c(C(=O)N[C@H](CC(=O)NCS(=O)(=O)O)C(=O)NCS(=O)(=O)O)cc2C(=O)N[C@H](CC(=O)NCS(=O)(=O)O)C(=O)NCS(=O)(=O)O)[C@H](O)CO)OC(C(=O)O)=C[C@@H]1NC(=N)N` [MD185, PK2PYR(Zn)2[(D-Asp)(NHCH2SO3)2]2], the EC50 in the data set with CA/07/2009 (unidentified influenza virus) is 3.2 nM; in the data set on CA/07/2009 (unidentified influenza virus, MDCK cell line) it was 6 ng/mL; in the data set on Perth/16/2009 (unidentified influenza virus), < 0.00013 µg/mL and < 0.07 nM; in the data set on Florida/4/2006 (unidentified influenza virus), < 0.00013 µg/mL and < 0.07 nM; in the data set on A/Mississippi/03/01H274Y, 0.89 nM; in data set [4] (Influenza A virus, H5N1), < 0.32 ng/mL. Also, the EC50 in data set [7] came to 0.1 ng/mL (≈ 0.0539 nM); in data set [9], 0.15 ng/mL (≈ 0.0809 nM); in data set [11], 6 ng/mL (≈ 3.24 nM); in data set [12], 6.2 ng/mL (≈ 3.34 nM); in data set [13], 6 ng/mL (≈ 3.24 nM); in data set [14] it was 6.2 ng/mL (≈ 3.34 nM). Besides, the EC50 in the data set on CA/07/2009 virus H1N1 was 9.5e-05 µg/mL and 0.0514 nM; in the data set with A/PR/8 virus H1N1 it was 4.26 nM. Also, the EC90 in data set [3] (Influenza A virus, H5N1) is < 0.32 ng/mL; in data set [6] it was 0.86 ng/mL (≈ 0.464 nM); in [8] it was 0.26 ng/mL (≈ 0.14 nM); in data set [10], 1.53 ng/mL (≈ 0.825 nM). Moreover, the “hERG IC50” value on hERG is reported as “not calculable”. In addition, in the data set on kinases, the “Number of Hits” value is recorded as 0.
